Measurements from US20080249140A1, “Quaternary 3 -Amido, N-Methylpyridinium Salts as Anti-Inflammatory Agents” (priority 2005, published 2008).

How the values were obtained:
[1] = system: reddening of the skin upon UV-irradiation; experiment: UV-erythema test (anti-inflammation) with a trial person; format: in vivo; conditions: for Readings of reddening intensities: 15±1 mg gel applied to irradiated skin, lower arm, UV C 150 seconds
Experimental: The NMN diclofenac salt prepared according to Example 1 was tested in experiments with a trial person in an […] according to Hiramatsu Y et al., Arzneimittel-forschung 1990, vol. 40 (11), 1117, and Wilhelm G, Schweiz. Med. Wochenschrift 1949, vol. 79, 577. The criterion of efficacy was the inhibition of the reddening of the skin upon UV-irradiation during the time of observation.
UV-Erythema Test (Anti-Inflammation):
• Lamp used: UV C lamp (Sylvania, Hg low pressure), 9 W • Irradiated area: circular, […] • Distance from lamp: 10 cm • Time of irradiation: 150 seconds • Site: lower arm, shaven, proximal side • Amount of gel applied to irradiated surface: 15±1 mg 3.5 to 5 minutes after end of irradiation
Readings of reddening intensities at given time intervals (arbitrary units): […]

rats = conditions: comparable to nicotinamide, lower than diethylamine; cited from earlier work

For `C[n+]1cccc(C(N)=O)c1.O=C([O-])Cc1ccccc1Nc1c(Cl)cccc1Cl` [NMN-Diclofenac, NMN-Salt of Diclofenac], the “Readings of reddening intensities” value ([1]; 40 minutes after start of irradiation) was 1 arbitrary units, the “Readings of reddening intensities” value ([1]; 60 minutes after start of irradiation) was 0.5 arbitrary units and the “Readings of reddening intensities” value ([1]; 90 minutes after start of irradiation) was 0 arbitrary units. For the same compound, the “Readings of reddening intensities” value ([1]; 120 minutes after start of irradiation) was 0.5 arbitrary units, the “Readings of reddening intensities” value ([1]; 180 minutes after start of irradiation) was 0.5 arbitrary units and the “Activity in UV-erythema test compared with Voltaren-Emulgel” value ([1]; comparison with Voltaren-Emulgel (diethylammonium salt of diclofenac)) was “superior activity”.

In the case of `C[n+]1cccc(C(N)=O)c1` [NMN, N(1)-methylnicotinamide], the Toxicity (rats) is listed as “low toxicity”.
